In ChEMBL document CHEMBL3885881, “DrugMatrix”:

Species on record: Rattus norvegicus
Experiment: DrugMatrix - Regimen: Daily Repeat
Assay type: toxicity, organism-based, Sprague-Dawley
Parameters: regimen Daily Repeat, gender Male, age 6-8 weeks
Details: in vivo, po, 600 mg/kg, route oral GAVAGE, dose level High, vehicle .5 % CMC; for ABSOLUTE BASOPHIL / ABSOLUTE EOSINOPHIL / ABSOLUTE LYMPHOCYTE / ABSOLUTE MONOCYTE / ABSOLUTE SEGMENTED NEUTROPHIL / BASOPHIL / EOSINOPHIL / ERYTHROCYTE COUNT / HEMATOCRIT / HEMOGLOBIN / LEUKOCYTE COUNT / LYMPHOCYTE / MEAN CORPUSCULAR HEMOGLOBIN / MEAN CORPUSCULAR HEMOGLOBIN CONCENTRATION / MEAN CORPUSCULAR VOLUME / MONOCYTE / NEUTROPHIL / NUCLEATED RED BLOOD CELLS / PLATELET COUNT: tissue Blood; for ALANINE AMINOTRANSFERASE / ALBUMIN / ALKALINE PHOSPHATASE / ASPARTATE AMINOTRANSFERASE / BLOOD UREA NITROGEN / CARBON DIOXIDE / CHLORIDE / CHOLESTEROL / CREATINE PHOSPHOKINASE / CREATININE / GLUCOSE / LACTATE DEHYDROGENASE / LIPASE / PHOSPHORUS / POTASSIUM / SODIUM / TOTAL BILIRUBIN / TOTAL PROTEIN / URIC ACID: tissue Plasma

Cc1c(OCC(F)(F)F)ccnc1C[S+]([O-])c1nc2ccccc2[nH]1 (stereo unspecified) [LANSOPRAZOLE]
ABSOLUTE BASOPHIL (72 h, time 3 day): 0 CELLS/uL | ABSOLUTE EOSINOPHIL (72 h, time 3 day): 0 CELLS/uL | ABSOLUTE LYMPHOCYTE (72 h, time 3 day): 13053.67 CELLS/uL | ABSOLUTE MONOCYTE (72 h, time 3 day): 222.67 CELLS/uL | ABSOLUTE SEGMENTED NEUTROPHIL (72 h, time 3 day): 690.33 CELLS/uL | BASOPHIL (72 h, time 3 day): 0% | EOSINOPHIL (72 h, time 3 day): 0% | ERYTHROCYTE COUNT (72 h, time 3 day): 5.81 x10E6/uL | HEMATOCRIT (72 h, time 3 day): 37.37% | HEMOGLOBIN (72 h, time 3 day): 13.57 G/DL | LEUKOCYTE COUNT (72 h, time 3 day): 13.97 x10E3/uL | LYMPHOCYTE (72 h, time 3 day): 93.67% | MEAN CORPUSCULAR HEMOGLOBIN (72 h, time 3 day): 23.33 pg | MEAN CORPUSCULAR HEMOGLOBIN CONCENTRATION (72 h, time 3 day): 36.3 G/DL | MEAN CORPUSCULAR VOLUME (72 h, time 3 day): 64.3 fL | MONOCYTE (72 h, time 3 day): 1.33% | NEUTROPHIL (72 h, time 3 day): 5% | NUCLEATED RED BLOOD CELLS (72 h, time 3 day): 0.33 /100WBC | PLATELET COUNT (72 h, time 3 day): 1408 x10E3/uL | ALANINE AMINOTRANSFERASE (72 h, time 3 day): 39 u/L | ALBUMIN (72 h, time 3 day): 4.1 G/DL | ALKALINE PHOSPHATASE (72 h, time 3 day): 387.33 u/L | ASPARTATE AMINOTRANSFERASE (72 h, time 3 day): 76.67 u/L | BLOOD UREA NITROGEN (72 h, time 3 day): 16.33 mg/dL | CARBON DIOXIDE (72 h, time 3 day): 28 mmol/L | CHLORIDE (72 h, time 3 day): 104.67 MEQ/L | CHOLESTEROL (72 h, time 3 day): 55.33 mg/dL | CREATINE PHOSPHOKINASE (72 h, time 3 day): 222 u/L | CREATININE (72 h, time 3 day): 0.18 mg/dL | GLUCOSE (72 h, time 3 day): 159 mg/dL | LACTATE DEHYDROGENASE (72 h, time 3 day): 91.33 u/L | LIPASE (72 h, time 3 day): 9.67 u/L | PHOSPHORUS (72 h, time 3 day): 12.23 mg/dL | POTASSIUM (72 h, time 3 day): 6.7 MEQ/L | SODIUM (72 h, time 3 day): 147.6 MEQ/L | TOTAL BILIRUBIN (72 h, time 3 day): 0.13 mg/dL | TOTAL PROTEIN (72 h, time 3 day): 5.53 G/DL | URIC ACID (72 h, time 3 day): 1.8 mg/dL | ABSOLUTE BASOPHIL (120 h, time 5 day): 0 CELLS/uL | ABSOLUTE EOSINOPHIL (120 h, time 5 day): 0 CELLS/uL | ABSOLUTE LYMPHOCYTE (120 h, time 5 day): 15467 CELLS/uL | ABSOLUTE MONOCYTE (120 h, time 5 day): 599 CELLS/uL | ABSOLUTE SEGMENTED NEUTROPHIL (120 h, time 5 day): 1467.33 CELLS/uL | BASOPHIL (120 h, time 5 day): 0% | EOSINOPHIL (120 h, time 5 day): 0% | ERYTHROCYTE COUNT (120 h, time 5 day): 5.82 x10E6/uL | HEMATOCRIT (120 h, time 5 day): 35.9% | HEMOGLOBIN (120 h, time 5 day): 13.57 G/DL | LEUKOCYTE COUNT (120 h, time 5 day): 17.53 x10E3/uL | LYMPHOCYTE (120 h, time 5 day): 87.67% | MEAN CORPUSCULAR HEMOGLOBIN (120 h, time 5 day): 23.33 pg | MEAN CORPUSCULAR HEMOGLOBIN CONCENTRATION (120 h, time 5 day): 37.8 G/DL | MEAN CORPUSCULAR VOLUME (120 h, time 5 day): 61.7 fL | MONOCYTE (120 h, time 5 day): 3.33% | NEUTROPHIL (120 h, time 5 day): 9% | NUCLEATED RED BLOOD CELLS (120 h, time 5 day): 0.33 /100WBC | PLATELET COUNT (120 h, time 5 day): 1179.67 x10E3/uL | ALANINE AMINOTRANSFERASE (120 h, time 5 day): 36 u/L | ALBUMIN (120 h, time 5 day): 3.93 G/DL | ALKALINE PHOSPHATASE (120 h, time 5 day): 272.33 u/L | ASPARTATE AMINOTRANSFERASE (120 h, time 5 day): 83.33 u/L | BLOOD UREA NITROGEN (120 h, time 5 day): 16.67 mg/dL | CARBON DIOXIDE (120 h, time 5 day): 28.33 mmol/L | CHLORIDE (120 h, time 5 day): 106 MEQ/L | CHOLESTEROL (120 h, time 5 day): 51.33 mg/dL | CREATINE PHOSPHOKINASE (120 h, time 5 day): 144.33 u/L | CREATININE (120 h, time 5 day): 0.17 mg/dL | GLUCOSE (120 h, time 5 day): 138.67 mg/dL | LACTATE DEHYDROGENASE (120 h, time 5 day): 71 u/L | LIPASE (120 h, time 5 day): 10.67 u/L | PHOSPHORUS (120 h, time 5 day): 10.43 mg/dL | POTASSIUM (120 h, time 5 day): 6.81 MEQ/L | SODIUM (120 h, time 5 day): 148.63 MEQ/L | TOTAL BILIRUBIN (120 h, time 5 day): 0.17 mg/dL | TOTAL PROTEIN (120 h, time 5 day): 5.73 G/DL | URIC ACID (120 h, time 5 day): 1.27 mg/dL
